Reference: patent US7041461B2 (H. Lundbeck A/S, priority 1998, dated 2006)

Key:
Type in all cases: cell-based
[1] = target: T1, NPFF2 (hNPFF2) (Homo sapiens, UniProt Q9Y5X5); test: Voltage-clamp electrophysiology in Xenopus oocytes expressing NPFF2 (NPFF-like) and chimeric Gαq/z; conditions: 1 μM; oocytes with NPFF2 (NPFF-like) mRNA and Gαq/z; −80 mV
T1 construct: BO89, was determined to be a full length clone with no point mutations; expressed in transfected cells; host or cells: Xenopus laevis oocytes injected with synthetic mRNA
T1 sequence (Q9Y5X5 103-522): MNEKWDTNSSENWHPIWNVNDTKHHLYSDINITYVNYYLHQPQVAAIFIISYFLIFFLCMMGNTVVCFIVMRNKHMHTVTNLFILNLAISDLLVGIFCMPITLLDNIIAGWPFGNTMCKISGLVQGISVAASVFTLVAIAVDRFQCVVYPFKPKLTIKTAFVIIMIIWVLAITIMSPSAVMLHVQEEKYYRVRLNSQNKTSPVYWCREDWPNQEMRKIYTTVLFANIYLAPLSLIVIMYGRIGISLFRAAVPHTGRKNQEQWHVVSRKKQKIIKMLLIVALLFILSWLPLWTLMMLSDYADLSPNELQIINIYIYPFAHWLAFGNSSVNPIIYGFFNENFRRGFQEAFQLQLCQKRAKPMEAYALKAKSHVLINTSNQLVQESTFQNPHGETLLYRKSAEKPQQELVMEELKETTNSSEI
Procedure: Electrophysiological responses in voltage-clamped oocytes expressing NPFF2 mRNA. […] Oocytes were clamped at a holding potential of −80 mV.
For expression of NPFF2, mRNA transcripts were generated as described for NPFF1, using PCR products from ligation reactions or linearized DNA from B089 as DNA templates. Oocytes were injected with 5–50 ng NPFF2 mRNA and incubated as previously described.
(§1) Oocytes were harvested from Xenopus laevis and injected with mRNA transcripts as previously described (Quick and Lester, 1994; Smith et al., 1997). […] Three to eight hours prior to recording, oocytes were injected with 500 pg Gαq/z mRNA in order to observe coupling to Ca^++ activated Cl^− currents. Dual electrode voltage clamp (Axon Instruments Inc.) was performed using 3 M KCl-filled glass microelectrodes having resistances of 1–2 Mohm. Unless otherwise specified, oocytes were voltage clamped at a holding potential of −80 mV. During recordings, oocytes were bathed in continuously flowing (1–3 ml/min) medium containing 96 mM NaCl, 2 mM KCl, 1.8 mM CaCl2, 1 mM MgCl2, and 5 mM HEPES, pH 7.5 (ND96). Drugs were applied either by local perfusion from a […] glass capillary tube fixed at a distance of 0.5 mm from the oocyte, or by switching from a series of gravity fed perfusion lines.

[2] = target: T2, NPFF1 (SN2) (Rattus norvegicus, UniProt Q9EP86); test: Microphysiometric measurement of extracellular acidification rate in transiently transfected CHO cells; conditions: CHO cells transfected with NPFF1 alone; read-out: EC50, increase in extracellular acidification rate
T2 construct: expressed in transfected cells; host or cells: CHO (CHO-K1) cells, transient
T2 sequence (Q9EP86 whole entry): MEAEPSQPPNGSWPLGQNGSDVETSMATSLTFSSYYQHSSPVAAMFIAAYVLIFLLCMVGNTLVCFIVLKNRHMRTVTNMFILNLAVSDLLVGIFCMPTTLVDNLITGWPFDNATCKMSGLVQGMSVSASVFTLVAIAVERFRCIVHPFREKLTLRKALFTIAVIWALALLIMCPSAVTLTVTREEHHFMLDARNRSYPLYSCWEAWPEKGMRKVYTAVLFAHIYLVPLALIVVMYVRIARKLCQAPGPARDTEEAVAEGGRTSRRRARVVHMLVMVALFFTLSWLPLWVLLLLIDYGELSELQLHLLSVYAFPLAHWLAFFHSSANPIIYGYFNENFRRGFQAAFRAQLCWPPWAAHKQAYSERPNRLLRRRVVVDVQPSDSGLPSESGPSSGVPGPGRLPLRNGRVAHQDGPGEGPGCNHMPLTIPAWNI
Excerpt: Microphysiometric response of CHO cells transiently transfected with either NPFF1 (SN2) alone or NPFF1 accompanied by Gq/Gz. […] In both FIGS. 17A and 17B control cells mock transfected with empty vector produced little if any response to drug even at the highest concentrations used. Responses are reported as percentage increase in the acidification rate as observed just prior to drug challenge (immediate prior basal rate).
General guidelines for transient receptor expression, cell preparation and microphysiometric recording are described elsewhere (Salon, J. A. and Owicki, J. A., 1996). Receptors and/or control vectors are transiently expressed in CHO-K1 cells, by liposome mediated transfection according to the manufacturers recommendations (Lipof ectAMINE, GibcoBRL, Gaithersburg, Md.), and maintained in Ham's F-12 complete (10% serum). […]
A standard recording protocol specifies a 100 μl/min flow rate, with a 2 min total pump cycle which includes a 30 sec flow interrruption during which the acidification rate measurement is taken. […] Ligand samples are then washed out and the acidification rates reported are expressed as a percentage increase of the peak response over the baseline rate observed just prior to challenge. […]

[3] = target: T3, SNORF2 (NPFF1) (Rattus norvegicus, UniProt Q9EP86); test: Voltage-clamp electrophysiology in Xenopus oocytes expressing SNORF2 (NPFF1) and chimeric Gαq/z; conditions: 1 μM; oocytes with SNORF2 and Gαq/z; holding potential −80 mV
T3 construct: from linearized plasmids or PCR products containing the complete coding region of the genes; expressed in transfected cells; host or cells: Xenopus laevis oocytes injected with synthetic RNA
T3 sequence (Q9EP86 whole entry): as above
Procedure: as §1
Heterologous expression of GPCRs in Xenopus oocytes has been widely used to determine the identity of signaling pathways activated by agonist stimulation (Gundersen et al., 1983; Takahashi et al., 1987). Activation of the phospholipase C (PLC) pathway is assayed by applying test compound in ND96 solution to oocytes previously injected with mRNA for the mammalian receptor and observing inward currents at a holding potential of −80 mV. The appearance of currents that reverse at −25 mV and display other properties of the Ca^++-activated Cl^− (chloride) channel is indicative of mammalian receptor-activation of PLC and release of IP3 and intracellular Ca^++.
Control oocytes receiving only G-protein synthetic RNA were unresponsive to these peptides. […] Similarly, SNORF2-like was renamed NPFF-like.

With H-AGEGLSSPFWSLAAPQRF-NH2 [A18Fa] the inward current response [1] was “activated similar inward currents”, the EC50 [2] was 150 nM and the inward current response [3] was “robust inward currents”.
